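Assay format: 96-well plates, 48-hour exposure. GI50 is the concentration that inhibits growth by half. TGI marks complete inhibition of growth.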
Key:
Experiment in all cases: NCI tumour cell line growth inhibition, 48 h
A549 NSCLC = system: A549 NSCLC
RPMI-8226 leukemia = system: RPMI-8226 leukemia
CAKI-1 renal = system: CAKI-1 renal
COLO 205 colon = system: COLO 205 colon
SNB-75 CNS = system: SNB-75 CNS
UACC-62 melanoma = system: UACC-62 melanoma
BT-549 breast = system: BT-549 breast
HT29 colon = system: HT29 colon
T-47D breast = system: T-47D breast
SR leukemia = system: SR leukemia
SK-OV-3 ovarian = system: SK-OV-3 ovarian
SNB-19 CNS = system: SNB-19 CNS
MDA-MB-231 breast = system: MDA-MB-231 breast
TK-10 renal = system: TK-10 renal
NCI-H226 lung = system: NCI-H226 lung
CCRF-CEM leukemia = system: CCRF-CEM leukemia
SF-539 CNS = system: SF-539 CNS
OVCAR-5 ovarian = system: OVCAR-5 ovarian
HOP-92 NSCLC = system: HOP-92 NSCLC
MCF7 breast = system: MCF7 breast
UACC-257 melanoma = system: UACC-257 melanoma
HL-60(TB) leukemia = system: HL-60(TB) leukemia
NCI-H522 lung = system: NCI-H522 lung
PC-3 prostate = system: PC-3 prostate
NCI/ADR-RES ovarian = system: NCI/ADR-RES ovarian
SF-268 CNS = system: SF-268 CNS
LOX IMVI melanoma = system: LOX IMVI melanoma
HCT-15 colon = system: HCT-15 colon
OVCAR-8 ovarian = system: OVCAR-8 ovarian
MALME-3M melanoma = system: MALME-3M melanoma
HOP-62 NSCLC = system: HOP-62 NSCLC
SK-MEL-2 melanoma = system: SK-MEL-2 melanoma
KM12 colon = system: KM12 colon
RXF 393 renal = system: RXF 393 renal
HCC-2998 colon = system: HCC-2998 colon
DU-145 prostate = system: DU-145 prostate
MOLT-4 leukemia = system: MOLT-4 leukemia
HCT-116 colon = system: HCT-116 colon
IGROV1 ovarian = system: IGROV1 ovarian
OVCAR-3 ovarian = system: OVCAR-3 ovarian
NCI-H23 lung = system: NCI-H23 lung
UO-31 renal = system: UO-31 renal
ACHN renal = system: ACHN renal
786-0 renal = system: 786-0 renal
HS 578T breast = system: HS 578T breast
SW-620 colon = system: SW-620 colon
SN12C renal = system: SN12C renal
MDA-MB-435 = system: MDA-MB-435
SF-295 CNS = system: SF-295 CNS
OVCAR-4 ovarian = system: OVCAR-4 ovarian
SK-MEL-5 melanoma = system: SK-MEL-5 melanoma
U251 CNS = system: U251 CNS
NCI-H460 lung = system: NCI-H460 lung
M14 melanoma = system: M14 melanoma
A498 renal = system: A498 renal
SK-MEL-28 melanoma = system: SK-MEL-28 melanoma
K-562 leukemia = system: K-562 leukemia

CCN(Cc1c(F)cccc1OC)c1ccc(CO)c(Cl)c1
GI50 (A549 NSCLC): 2.35 µM
TGI (A549 NSCLC): 23.1 µM
GI50 (RPMI-8226 leukemia): 1.44 µM
TGI (RPMI-8226 leukemia): 23.1 µM
GI50 (CAKI-1 renal): 3.05 µM
TGI (CAKI-1 renal): 35.5 µM
GI50 (COLO 205 colon): 0.684 µM
TGI (COLO 205 colon): 7.43 µM
GI50 (SNB-75 CNS): 14.5 µM
TGI (SNB-75 CNS): 46.2 µM
GI50 (UACC-62 melanoma): 0.0961 µM
TGI (UACC-62 melanoma): 0.953 µM
GI50 (BT-549 breast): 17.6 µM
TGI (BT-549 breast): 36.9 µM
GI50 (HT29 colon): 1.47 µM
TGI (HT29 colon): 18.9 µM
GI50 (T-47D breast): 0.0467 µM
TGI (T-47D breast): 0.283 µM
GI50 (SR leukemia): 18.3 µM
TGI (SR leukemia): 55.5 µM
GI50 (SK-OV-3 ovarian): 3.65 µM
TGI (SK-OV-3 ovarian): 19.9 µM
GI50 (SNB-19 CNS): 24.2 µM
TGI (SNB-19 CNS): > 100 µM
GI50 (MDA-MB-231 breast): 14.5 µM
TGI (MDA-MB-231 breast): 40.9 µM
TGI (TK-10 renal): 0.0536 µM
GI50 (NCI-H226 lung): 0.0328 µM
TGI (NCI-H226 lung): 0.169 µM
GI50 (CCRF-CEM leukemia): 20.9 µM
TGI (CCRF-CEM leukemia): > 79.1 µM
GI50 (SF-539 CNS): 16.6 µM
TGI (SF-539 CNS): 33.1 µM
GI50 (OVCAR-5 ovarian): 0.0371 µM
TGI (OVCAR-5 ovarian): 0.242 µM
GI50 (HOP-92 NSCLC): 0.933 µM
TGI (HOP-92 NSCLC): 10 µM
GI50 (MCF7 breast): 0.165 µM
TGI (MCF7 breast): 16.1 µM
GI50 (UACC-257 melanoma): 0.0523 µM
TGI (UACC-257 melanoma): 0.226 µM
GI50 (HL-60(TB) leukemia): 13.2 µM
TGI (HL-60(TB) leukemia): 43.3 µM
GI50 (NCI-H522 lung): 13 µM
TGI (NCI-H522 lung): 29.6 µM
GI50 (PC-3 prostate): 17.1 µM
TGI (PC-3 prostate): 58.4 µM
GI50 (NCI/ADR-RES ovarian): 13.3 µM
TGI (NCI/ADR-RES ovarian): 43.1 µM
GI50 (SF-268 CNS): 23.2 µM
TGI (SF-268 CNS): > 63.5 µM
GI50 (LOX IMVI melanoma): 16.9 µM
TGI (LOX IMVI melanoma): 33.1 µM
GI50 (HCT-15 colon): 12.8 µM
TGI (HCT-15 colon): 41.5 µM
GI50 (OVCAR-8 ovarian): 12 µM
TGI (OVCAR-8 ovarian): 50.2 µM
GI50 (MALME-3M melanoma): 14 µM
TGI (MALME-3M melanoma): 31.7 µM
GI50 (HOP-62 NSCLC): 2.69 µM
TGI (HOP-62 NSCLC): 25.5 µM
GI50 (SK-MEL-2 melanoma): 2.39 µM
TGI (SK-MEL-2 melanoma): 21.7 µM
GI50 (KM12 colon): 15.9 µM
TGI (KM12 colon): 49.8 µM
GI50 (RXF 393 renal): 10.9 µM
TGI (RXF 393 renal): 25.3 µM
GI50 (HCC-2998 colon): 7.33 µM
TGI (HCC-2998 colon): 22.3 µM
GI50 (DU-145 prostate): 17.8 µM
TGI (DU-145 prostate): > 57.3 µM
GI50 (MOLT-4 leukemia): 17.4 µM
TGI (MOLT-4 leukemia): 52.3 µM
GI50 (HCT-116 colon): 0.0546 µM
TGI (HCT-116 colon): > 37.2 µM
GI50 (IGROV1 ovarian): < 0.036 µM
GI50 (OVCAR-3 ovarian): 0.253 µM
TGI (OVCAR-3 ovarian): 1.81 µM
GI50 (NCI-H23 lung): 12.5 µM
TGI (NCI-H23 lung): 39.2 µM
GI50 (UO-31 renal): 14.9 µM
TGI (UO-31 renal): 48.8 µM
GI50 (ACHN renal): 16.8 µM
TGI (ACHN renal): 44.6 µM
GI50 (786-0 renal): 16.7 µM
TGI (786-0 renal): 38.9 µM
GI50 (HS 578T breast): 19.1 µM
TGI (HS 578T breast): 53.4 µM
GI50 (SW-620 colon): 0.714 µM
TGI (SW-620 colon): > 77 µM
GI50 (SN12C renal): 12.8 µM
TGI (SN12C renal): 26 µM
GI50 (MDA-MB-435): 16 µM
TGI (MDA-MB-435): 39 µM
GI50 (SF-295 CNS): 0.0707 µM
TGI (SF-295 CNS): 1.88 µM
GI50 (OVCAR-4 ovarian): 0.216 µM
TGI (OVCAR-4 ovarian): 13 µM
GI50 (SK-MEL-5 melanoma): 11.9 µM
TGI (SK-MEL-5 melanoma): 24.2 µM
GI50 (U251 CNS): 0.716 µM
TGI (U251 CNS): 26.7 µM
GI50 (NCI-H460 lung): 0.201 µM
TGI (NCI-H460 lung): 11.7 µM
GI50 (M14 melanoma): 19.7 µM
TGI (M14 melanoma): 47.8 µM
GI50 (A498 renal): 0.0325 µM
TGI (A498 renal): 0.106 µM
GI50 (SK-MEL-28 melanoma): 14.7 µM
TGI (SK-MEL-28 melanoma): 34.3 µM
GI50 (K-562 leukemia): 0.623 µM
TGI (K-562 leukemia): 15.7 µM
